Assays:
[1] = tested on: cloned mammalian (mSlo or hSlo) BK; assay: BK-mediated outward current, two-electrode voltage clamp in Xenopus oocytes; type: cell-based; settings: 1 μM; at least 5 oocytes; mSlo or hSlo expressed in Xenopus oocytes
Experimental: (§1) The ability of the compound of Example 1 to open BK channels and increase whole-cell outward (K^+) BK-mediated currents was assessed under voltage-clamp conditions by determining their ability to increase cloned mammalian (mSlo or hSlo) BK--mediated outward current heterologously expressed in Xenopus oocytes [Butler, A., et al., Science, 261, pp. 221-224 (1993); and Dworetzky, S. I., et al., Mol. Brain Res., 27, pp.189-193 (1994)]. The two BK constructs employed represent nearly structurally identical homologous proteins, and have proven to be pharmacologically identical in our tests. To isolate BK current from native (background, non-BK) current, the specific and potent BK channel-blocking toxin iberiotoxin (IBTX) [Galvez, A., et al., J. Biol. Chem, 265, pp. 11083-11090 (1990)] was employed at a supramaximal concentration (50 nM). The relative contribution of BK channels current to total outward current was determined by subtraction of the current remaining in the presence of IBTX (non-BK current) from the current profiles obtained in all other experimental conditions (control, drug, and wash). […]

[2] = tested on: non-BK native currents in the oocytes; assay: Effect on non-BK native currents (IBTX-insensitive) in oocytes; type: cell-based, Xenopus; settings: at the tested concentration; current remaining in presence of 50 nM IBTX
Experimental: as §1

[3] = Rapid screen of prodrug hydrolysis and drug release in plasma; type: in vitro ADME; settings: 10 ug/mL in fresh rat plasma at 37° C.; stock 1 mg/mL in PEG-400; analysis 5 minutes after incubation
Experimental: A rapid screen to determine the ability of prodrugs to hydrolyze and release the drug (compound of Example 1) is conducted as follows. A 1 mg/mL stock solution of the prodrug is prepared in distilled water or acetonitrile or PEG-400. Plasma from freshly collected rat or human blood is used in this assay. To 1 mL of plasma at 37° C. was added 10 μL of stock solution of prodrug and mixed gently. Immediately after the mixing, 100 μL of plasma was removed and quenched with 300 μL of acetontrile (Zero time sample). Samples were also obtained at 30 minutes and quenched immediately. The quenched samples were centrifuged to obtain a clear supernatant for analysis. The stock solution, T=0 and T=30 samples were analyzed by a HPLC assay that separates the drug from the prodrug. Based on the relative peak areas of prodrug and drug in these samples, different prodrugs are characterized as fast, moderate and slow release agents. For example, in this model, the compound of Example 13 was dissolved in PEG-400 at a concentration of 1 mg/mL and incubated at 10 ug/mL in fresh rat plasma at 37° C.

[4] = tested on: focal cerebral ischemia in the Wistar rat; assay: Focal stroke model, permanent MCA/CCA occlusion; type: in vivo; settings: 1 mg/kg intravenously, single bolus two hours after MCA occlusion; measured 24 hours after MCAO; vs vehicle-treated (water) control
Experimental: To determine the ability of the compounds of the present invention to reduce cell loss resulting from neuronal ischemia, a standard focal cerebral ischemia is induced by permanent occlusion of the left middle cerebral artery (MCA) and common carotid artery (CCA) with one hour occlusion of the right CCA in the Wistar rat. The surgeries are performed using the sub-temporal approach of A. Tamura, et al., J. Cereb. Blood Flow Metab., 1, pp. 53-60, (1981) and its modifications [K. Osbome, et al., J. Neurol Neurosurg. Psychiatry, 50, pp. 402-410 (1987) and S. Menzies, et al., Neurosurgery, 31, pp. 100-107, (1992).]
The compound of Example 13 was evaluated in the focal stroke model involving permanent occlusion of the left MCA (MCAO) and CCA (CCAO) and temporary occlusion of the right CCA in the Wistar rat. This procedure results in a reliably large neocortical infarct volume that is measured by means of vital dye exclusion in serial slices through the brain 24 hours after MCAO. In the present test, compounds were administered using an i.v. or i.p. route of administration two hours after occlusion.

Row | Structure (SMILES) | increase of BK current, % of control of IBTX-sensitive current [1] | effect on non-BK native currents in the oocytes [2] | conversion of prodrug to the compound of Example 1 in plasma [3] | reduction of cortical infarct volume [4]
1 | O=c1oc(-c2ccc(C(F)(F)F)cc2)nn1Cc1cc(Cl)ccc1O [Example 1, 3-[(5-Chloro-2-hydroxyphenyl)methyl]-5-[4-(trifluoromethyl)phenyl]-1,3,4-oxadiazol-2(3H)-one] | 126% | did not effect non-BK native currents | – | –
2 | C[N+](C)(C)CCCC(=O)OCOc1ccc(Cl)cc1Cn1nc(-c2ccc(C(F)(F)F)cc2)oc1=O [Example 13, 3-[[[[4-Chloro-2-[[5-[4-(trifluoromethyl)phenyl]-2,3-dihydro-2-oxo-1,3,4oxadiazol-3-yl]methyl]phenoxy]methoxy]carbonyl]propyl]trimethylammonium methanesulfonate] | – | – | conversion of the compound of Example 13 to the compound of Example 1 | about 17%

— US6034113A, “Derivatives of 1,3,4-oxadiazolone” (Bristol-Myers Squibb Company, priority 1999, dated 2000)
